Results taken from patent US7045502B2, “Use of melagatran for the manufacture of a medicament for the treatment of Type 1 diabetes mellitus” (AstraZeneca AB, priority 2002, dated 2006).
“Also recorded” adds a separate entry of the source.

Experiments:
[1] = test system: human islets in ABO-compatible blood (IBMIR); test: Tubing loop model: human islets perfused with fresh ABO-compatible human blood (IBMIR); format: cell-based
Source text: (§1) Pancreases were obtained from cadaver donors after consent was obtained either from the organ donor registry or from relatives. The organs were obtained from three female and two male normoglycemic donors (aged 59–85 years, three with blood group 0 and two with blood group A). The islets were isolated at the Division for Clinical Immunology at the University of Uppsala using a modification of previously described semiautomated digestion-filtration methods (Brandhorst et al, Cell Transplant., 7, 489 (1998) and Ricordi et al, Diabetes, 37, 413 (1988)). This isolation procedure was followed by further purification on a continuous density gradient in a refrigerated COBE 2991 centrifuge (COBE Blood Component Technology, Lakewood, Colo., USA). The islets were placed in untreated culture flasks and maintained in suspension culture at 37° C. (5% CO2) for. 1 to 5 days. The culture medium (CMRL 1066; ICN Biomedicals, Costa Mesa, Calif.) was changed every other day. The volume and purity of the islets were determined by microscopic sizing on a grid after staining with diphenylthiocarbazone. The purity of the islet preparations used in this study ranged from 40% and 95% (70±6.3%) (amount of endocrine compared to exocrine/duct tissue in the preparation; mean ±SD). Viability was assessed in terms of insulin secretion in response to a glucose challenge in a dynamic perfusion system (in 1.67 mmol/L glucose, then in 16.7 mmol/L, and finally back to 1.67 mmol/L).
All materials that came in contact with whole blood were furnished with a Corline heparin surface (Corline, Uppsala, Sweden) according to the manufacturer's recommendation (see J. Clin. Immunol., 16, 222 (1996)). The surface concentration of heparin was 0.5 μg/cm^2, corresponding to approximately 0.1 U/cm^2, with an antithrombin binding capacity of 2–4 pmol/cm^2.
Fresh human blood, obtained from healthy volunteers who had received no medication for at least 14 days, was collected in surface-heparinized 60-mL syringes (18 gauge, Microlance; Becton Dickinson, Franklin Lakes, N.J.). The cannulae of the syringes were connected to surface-heparinized-silicon tubing. During sampling, the syringes were rotated continuously.
(§2) A modification of the model previously described was used (see Bennet et al, Diabetes, 48, 1907 (1999), Gong et al, J. Clin. Immunol., 16, 222 (1996) and Larsson et al, Immunophamnacology, 38, 119 (1997)). This device consisted of loops made of PVC (diameter, 6.3 mm; length, 390 mm) whose inner surface was furnished with immobilized heparin. The tubing was held together with a specially designed heparinized connector. A circular loop was formed when the ends of the connector were tightly pushed into the lumen of the tubing ends. A rocking apparatus, placed in a 37° C. incubator, was used to generate blood flow inside the loops. The loops were rocked at a setting that prevented the blood from coming into contact with the connectors. Up to twelve devices could be rocked at the same time. Ten 60-min islet experiments were performed, with islets isolated from five different donors. Melagatran (Astraeneca R&D Mölndal, Sweden), dissolved in 5 mM citrate buffer containing 0.15 M NaCl, pH 5.5, was tested at 0, 0.4 μM, 1 μM, 4 μM, and 10 μM. For each experiment, two loops of fresh human blood without islets, one containing CMRL 1066 (GibcoRBL, USA) and one containing 10 μM melagatran, were included as controls. Fresh ABO-compatible human blood from the same donor (5 mL) was added to each loop. The loops were placed on the rocking device for a 10-min preincubation with melagatran or citrate buffer. Thereafter, the loops were opened, and 150 μL of CMRL 1066, with or without 4 μL of islets (approximately 4,000 IEQ), was added to the loops, followed by another 60-min incubation on the rocking device at 37° C. Blood glucose levels were measured with a glucometer (Glucometer Elite; Bayer Diagnostics, Leverkusen, Germany) before the perfusion. […]

complement system = test: Activation of complement in serum in wells of microtiter plates; format: biochemical; conditions: human serum, no islets, 0 to 10 μM, 30 min, 37° C.
Experimental: The direct effect of melagatran on the complement system was studied using a method in which serum was incubated in the wells of microtiter plates (Nilsson et al, Mol. Immunol., 30, 211 (1993)). Serum (100 μL) was added to each well of a 96-well microtiter plate together with melagatran at a final concentration of 0, 0.4, 1, 4, or 10 μM. After a 30-min incubation at 37° C., the serum was transferred to tubes containing EDTA (final concentration, 10 mM). These samples were stored at −70° C. before analysis of the complement fragment C3a (see below). In order to detect bound C3 fragments, the wells of the microtiter plates were washed with PBS containing 0.05% (v/v) TWEEN 20 and incubated with 100 μL of horseradish peroxidase (HRP)-conjugated anti-C3c (DAKO. AS, Glostrup, Denmark) for 60 min at 37° C. The binding of antibody was detected by the addition of 1,2-phenylendiamine dihydrochloride (Fluka, Switzerland), and the staining was monitored at 492 nm.
EDTA-plasma was analyzed as previously described (Nilsson Ekdahl et al, Scand. J. Immunol., 35, 85 (1992)). Monoclonal antibody 4SD17.3 was used as capture antibody. Bound C3a was detected with biotinylated polyclonal anti-C3a followed by HRP-conjugated streptavidin (Amersham, Buckinghamshire, UK). Zymosan-activated serum, calibrated against a solution of purified C3a, served as a standard, and the values are given as ng/mL.

human islets [2] = test: Islet perfusion system (islet function, insulin secretion); format: cell-based; conditions: 10 μM melagatran
Source text: as §1, with “The purity of the islet preparations used in this study ranged from 40% and 95% (70±6.3%) (amount of endocrine compared to exocrine/duct tissue in the preparation; mean ±SD).” left out, “mmol/L). […]” for “mmol/L).”

human islets [3] = test: Immunohistochemical staining of human islets after perfusion in the tubing loop model; format: cell-based; conditions: 10 μM melagatran
Source text: as §2, with “perfusion. After every perfusion the loop contents were filtered through 70 μm-diameter filters (Filcons, Cuptype; DAKO, Denmark). Both macroscopic blood clots and tissue recovered on the filters were frozen in liquid nitrogen for immunohistochemical staining. For immunohistochemical comparison, non-perfused islets were also frozen and stained by the same procedure.” for “perfusion.”

[4] = islets, 10 μM melagatran, 60 min perifusion with ABO-compatible blood, mean ± SEM, n=10
[5] = islets, 10 μM melagatran, 60 min perifusion with ABO-compatible blood, plasma, mean ± SEM, n=10

- Binding of C3 fragments to the polystyrene surface (complement system): no effect
- Insulin release on perfusion of islets (human islets [2]): did not induce insulin release
- Subsequent glucose stimulation of islets (human islets [2]; glucose 16.7 mmol/L): normal
Structure (SMILES): N=C(N)c1ccc(CNC(=O)[C@@H]2CCN2C(=O)[C@H](NCC(=O)O)C2CCCCC2)cc1 [melagatran, HOOC—CH2—(R)Cgl-Aze-Pab-H]
- FXIa-AT versus medium control ([1]; 4 μM melagatran, FIG. 1B): decreased to nearly the same level as the medium control
- TAT versus medium control ([1]; 4 μM melagatran, FIG. 1B): decreased to nearly the same level as the medium control
- Cell consumption and cascade system activation ([1]; 0.4 to 10 μM, 60 min): diminished cell consumption and cascade system activation in a dose-dependent manner
- Release of β-TG ([1]; at ≧4 μM, FIG. 1A): normalized
- Inhibition of prothrombin fragment 1+2 formation ([1]; compared with 4 μM needed for TAT and FXIa-AT, FIG. 1B): required higher doses
- Inhibition of IBMIR (overall) ([1]; in vitro): almost completely inhibits IBMIR; also recorded: abrogated IBMIR
- Granulocytes [1, 4]: 3.7 ± 0.3 ×10^9/L
- Lymphocytes [1, 4]: 2.0 ± 0.1 ×10^9/L
- Monocytes [1, 4]: 0.6 ± 0.1 ×10^9/L
- Platelets [1, 4]: 170 ± 8.2 ×10^9/L
- C3a [1, 5]: 510 ± 50 ng/mL
- FXIa-AT [1, 5]: 0.9 ± 0.6 µmol/L
- Insulin [1, 5]: 1500 ± 350 mU/L
- Prothrombin F1 + 2 [1, 5]: 110 ± 28 nmol/L
- TAT [1, 5]: 890 ± 160 µg/L
- sC5b-9 [1, 5]: 140 ± 17.0 AU/mL
- β-TG [1, 5]: 1300 ± 200 IU/mL
- Complement activation product C3a ([1]; tubing loop with islets, 0 to 10 μM, FIG. 2): inhibited
- Concentration at which an effect on most parameters was already observed ([1]; tubing loop, 60 min): 0.4 µM
- Concentration at which cell counts were fully restored ([1]; tubing loop, 60 min, FIGS. 1A, 1C): ≥ 4 µM
- Generation of C3a (complement system): no effect
- Clot formation around islets (human islets [3]; 60 min perfusion with fresh human blood): no signs of clot formation
- CD11b+ cells penetrated into the islets (human islets [3]; 60 min perfusion, anti-CD11b staining): only a few
- CD41+ platelets surrounding the islet surface (human islets [3]; 60 min perfusion, anti-CD41a staining): almost no
